In patent US9376420B2 (YUHAN CORPORATION, priority 2012, dated 2016):

Biological target: T1, human LXRβ (Homo sapiens, UniProt P55055)
T1 construct: expressed in transfected cells; host or cells: HEK293 cells (ATCC CRL-1573), transient transfection with pFA-hLXRβ/GAL4 and pUAS
T1 sequence (P55055 222-460 limits assumed): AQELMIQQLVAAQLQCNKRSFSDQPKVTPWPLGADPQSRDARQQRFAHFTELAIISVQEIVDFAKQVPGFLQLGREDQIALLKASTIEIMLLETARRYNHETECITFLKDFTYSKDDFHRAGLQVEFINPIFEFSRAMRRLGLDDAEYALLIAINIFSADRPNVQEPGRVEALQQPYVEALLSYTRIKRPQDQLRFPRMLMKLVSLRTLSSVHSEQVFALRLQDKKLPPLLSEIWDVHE
Assay: Assay for Transcriptional Activity of LXRβ (GAL4-hLXRβ LBD luciferase reporter, transient transfection)
Type: cell-based
Settings: HEK293 cells transfected with pFA-hLXRβ/GAL4 and pUAS, 24 hours; for Emax: fold value in comparison with the control (DMSO-treated group); for EC50: increase of transcriptional activity of LXRβ, average of three independent tests
From the text: The ligand-binding domain (LBD) cDNA of human LXRβ was inserted into an expression vector (pFA, Stratagene, USA) site adjacent to the yeast GAL4 transcription factor DNA binding domain to prepare an expression construct (pFA-hLXRβ/GAL4) (Willey et al., Genes & Development 9 1033-1045 (1995). The GAL4-responsive luciferase reporter plasmid, i.e., pUAS (Stratagene, USA), contained five copies of the GAL4 response element placed adjacent to the promoter and the luciferase reporter gene. The pFA-hLXRβ/GAL4 and pUAS were introduced into mammalian cells through transient transfection, followed by measuring the transcriptional activity of LXRβ.
HEK293 cells (human kidney cells, sATCC, CRL-1573) were incubated at a T-75 flask containing a DMEM supplemented with 10% fetal bovine serum (FBS) in a 37° C., until they reach about 70˜80% confluency. The culture media containing the cells was added to each well of a 96-well plate in a density of 5×10^4 cells per well. The pFA-hLXRβ/GAL4 and pUAS was transfected to the cells using a cationic-lipid transfection reagent (Lipofectamine™, Invitrogen), through culturing at 37° C. for 3 hours for transient transfection according to the manufacturer's instruction. The test compounds were dissolved in dimethyl sulfoxide (DMSO) in the concentrations of 50, 30, 10, 3, 1, 0.3, 0.1, 0.03, and 0.01 μM and then cells were treated with the prepared compound-containing solution (100 μl). The cells were incubated at 37° C. for 24 hours. After removal of the medium from each well, the lysis buffer (25 mM Tricine pH7.8, 2 mM DTT, 2 mM EGTA, 10% glycerol, 1% Triton X-100) was added with the amount of 20 μl per each well, and the plate was stirred at room temperature for 15 minutes. The luciferase reagent (prepared by adding 10 ml of the luciferase buffer (Promega) to 1 vial of the luciferase substrate (Promega)) was added to each well with the amount of 100 μl per well, followed by assaying with a luminometer according to the manufacturer's instruction.
The dose-response curve for calculating the EC50 values of the test compounds on the increase of transcriptional activity of LXRβ was prepared using the known LXR agonist (i.e., N-(2,2,2-trifluoro-ethyl)-N-[4-(2,2,2-trifluoro-1-hydroxy-1-trifluoromethyl-ethyl)-phenyl]-benzenesulfonamide) as a positive control and the vehicle (DMSO) as a negative control. The dose-response curve was produced from the 9-point curve having different concentrations at a 1/2 log unit. The EC50 value of a test compound, which is defined as a concentration for initiating the reaction corresponding to the half value between the Top value (i.e., the maximum value) and the Bottom value (baseline), was calculated according to the following equation. Y=Bottom+(Top-Bottom)/(1+10^((log EC50-X)*Hill Slope)).
In the above equation, Y is the observed value; X is the log concentration; Hill Slope is the slope of the curve; and Top and Bottom are the maximum value of test compound and the baseline value, respectively.
The following tables 1 and 2 show the EC50 values of the test compounds measured as in the above. In the tables 1 and 2, each EC50 value represents an average value obtained from three independent tests.

SMILES | Emax [fold] | EC50 [nM]
O=C(O)C(F)(F)F.OC(C1=NN(c2ccccc2Cl)C(c2cccc(C3=CCNCC3)c2)C1)(C(F)(F)F)C(F)(F)F (centres unmarked) [Example 230, 1-(2-chloro-phenyl)-5-[3-(1,2,3,6-tetrahydropyridin-4-yl)-phenyl]-3-[di-(trifluoromethyl)-hydroxy-methyl]-4,5-dihydro-1H-pyrazole trifluoroacetate] | 137 | 36
CS(=O)(=O)N1CC=C(c2cccc(N3N=C(C(O)(C(F)(F)F)C(F)(F)F)CC3c3ccccc3Cl)c2)CC1 (centres unmarked) [Example 437, 5-(2-chloro-phenyl)-1-[3-(1-methylsulfonyl-1,2,3,6-tetrahydropyridin-4-yl)-phenyl]-3-[di-(trifluoromethyl)-hydroxy-methyl]-4,5-dihydro-1H-pyrazole] | 13 | 932
O=S(=O)(C1CC1)N1CCN(c2ccc(F)c(C3CC(C(F)(F)C(F)(F)F)=NN3c3ccc(F)cc3F)c2)CC1 (centres unmarked) [Example 146, 1-(2,4-difluoro)-5-[2-fluoro-5-(4-cyclopropanesulfonyl-piperazin-1-yl)-phenyl]-3-pentafluoroethyl-4,5-dihydro-1H-pyrazole] | 105 | 842
CS(=O)(=O)c1cccc(-c2cccc(N3N=C(C(F)(F)C(F)(F)F)CC3c3ccc(F)cc3F)c2)n1 (centres unmarked) [Example 208, 5-(2,4-difluoro-phenyl)-1-[3-(6-methanesulfonyl-pyridin-2-yl)-phenyl]-3-pentafluoroethyl-4,5-dihydro-1H-pyrazole] | 22 | 6070
COc1ncc(-c2cccc(C3CC(C(F)(F)C(F)(F)F)=NN3c3ccc(F)cc3F)c2)cc1C=O (centres unmarked) [Example 73, 1-(2,4-difluoro-phenyl)-5-(3-(3-formyl-2-methoxy-pyridin-5-yl)-phenyl)-3-pentafluoroethyl-4,5-dihydro-1H-pyrazole] | 13 | 1070
CS(=O)(=O)c1ccc(-c2cccc(N3N=C(C(O)(C(F)(F)F)C(F)(F)F)CC3c3ccccc3Cl)c2)cn1 (centres unmarked) [Example 435, 5-(2-chloro-phenyl)-1-{3-[6-(methylsulfonyl)-pyridin-3-yl]-phenyl}-3-[di-(trifluoromethyl)-hydroxy-methyl]-4,5-dihydro-1H-pyrazole] | 25 | 965
CS(=O)(=O)c1ccc(-c2cncc(C3CC(C(F)(F)C(F)(F)F)=NN3c3ccc(F)cc3F)c2)cn1 (centres unmarked) [Example 166, 1-(2,4-difluoro-phenyl)-5-[3-(6-methanesulfonyl-pyridin-3-yl)-pyridin-5-yl]-3-pentafluoroethyl-4,5-dihydro-1H-pyrazole] | 56 | 7050
COc1ccc(-c2ccc(C3CC(C(O)(C(F)(F)F)C(F)(F)F)=NN3c3ccccc3Cl)cc2F)cn1 (centres unmarked) [Example 368, 1-(2-chloro-phenyl)-5-[3-fluoro-4-(6-methoxy-pyridin-3-yl)-phenyl]-3-[di-(trifluoromethyl)-hydroxy-methyl]-4,5-dihydro-1H-pyrazole] | 57 | 1920
COc1ncccc1-c1cccc(C2CC(C(F)(F)C(F)(F)F)=NN2c2ccc(F)cc2F)c1 (centres unmarked) [Example 75, 1-(2,4-difluoro-phenyl)-5-(3-(2-methoxy-pyridin-3-yl)-phenyl)-3-pentafluoroethyl-4,5-dihydro-1H-pyrazole] | 63 | 1120
OC(C1=NN(c2ccccc2Cl)C(c2ccc(-c3ccc(F)cc3)cc2)C1)(C(F)(F)F)C(F)(F)F (centres unmarked) [Example 246, 1-(2-chloro-phenyl)-5-(4′-fluoro-biphenyl-4-yl)-3-[di-(trifluoromethyl)-hydroxy-methyl]-4,5-dihydro-1H-pyrazole] | 47 | 1410
CS(=O)(=O)c1ccc(-c2cccc(C3CC(C(F)(F)C(F)(F)F)=NN3Cc3ccccc3Cl)c2)cc1 (centres unmarked) [Example 54, 1-(2-chloro-benzyl)-5-(4′-methanesulfonyl-biphenyl-3-yl)-3-pentafluoroethyl-4,5-dihydro-1H-pyrazole] | 17 | 6430

Second part, the compound after the results:

Emax [fold] | EC50 [nM] | SMILES
97 | 239 | Cc1ccc(-c2ccc(C3CC(C(O)(C(F)(F)F)C(F)(F)F)=NN3c3ccccc3Cl)cc2)c(F)c1 (centres unmarked) [Example 265, 1-(2-chloro-phenyl)-5-(2′-fluoro-4′-methyl-biphenyl-4-yl)-3-[di-(trifluoromethyl)-hydroxy-methyl]-4,5-dihydro-1H-pyrazole]
30 | 354 | CS(=O)(=O)c1cccc(-c2cccc(N3N=C(C(O)(C(F)(F)F)C(F)(F)F)CC3c3ccccc3Cl)c2)c1 (centres unmarked) [Example 434, 5-(2-chloro-phenyl)-1-[3′-(methylsulfonyl)-biphenyl-3-yl]-3-[di-(trifluoromethyl)-hydroxy-methyl]-4,5-dihydro-1H-pyrazole]
81 | 344 | CS(=O)(=O)c1ccc(-c2cccc(C3CC(C(F)(F)C(F)(F)F)=NN3c3ccc(F)cc3F)c2)cn1 (centres unmarked) [Example 92, 1-(2,4-difluoro-phenyl)-5-[3-(6-methanesulfonyl-pyridin-3-yl)-phenyl]-3-pentafluoroethyl-4,5-dihydro-1H-pyrazole]
29 | 503 | CS(=O)(=O)c1cc(F)c(-c2ccc(C3CC(C(O)(C(F)(F)F)C(F)(F)F)=NN3c3ccc(F)cc3F)cc2)c(F)c1 (centres unmarked) [Example 389, 1-(2,4-difluoro-phenyl)-5-(2′,6′-difluoro-4′-methanesulfonyl-biphenyl-4-yl)-3-[di-(trifluoromethyl)-hydroxy-methyl]-4,5-dihydro-1H-pyrazole]
92 | 630 | O=S(=O)(C1CC1)N1CC=C(c2ccc(C3CC(C(O)(C(F)(F)F)C(F)(F)F)=NN3c3ccccc3Cl)cn2)CC1 (centres unmarked) [Example 359, 1-(2-chloro-phenyl)-5-[6-(1-cyclopropanesulfonyl-1,2,3,6-tetrahydropyridin-4-yl)-pyridin-3-yl]-3-[di-(trifluoromethyl)-hydroxy-methyl]-4,5-dihydro-1H-pyrazole]
40 | 727 | CS(=O)(=O)c1cc(F)c(-c2ccc(C3CC(C(O)(C(F)(F)F)C(F)(F)F)=NN3c3ccccc3Cl)cc2)c(F)c1 (centres unmarked) [Example 288, 1-(2-chloro-phenyl)-5-[2′,6′-difluoro-4′-(methylsulfonyl)-biphenyl-4-yl]-3-[di-(trifluoromethyl)-hydroxy-methyl]-4,5-dihydro-1H-pyrazole]
26 | 173 | CS(=O)(=O)c1ccc(-c2ccc(C3CC(C(O)(C(F)(F)F)C(F)(F)F)=NN3c3ccc(F)cc3F)cc2)nc1 (centres unmarked) [Example 391, 1-(2,4-difluoro-phenyl)-5-[4-(5-methanesulfonyl-pyridin-2-yl)-phenyl]-3-[di-(trifluoromethyl)-hydroxy-methyl]-4,5-dihydro-1H-pyrazole]
34 | 636 | Cc1ccccc1-c1ccc(C2CC(C(O)(C(F)(F)F)C(F)(F)F)=NN2c2ccc(F)cc2F)cc1 (centres unmarked) [Example 371, 1-(2,4-difluoro-phenyl)-5-(2′-methyl-biphenyl-4-yl)-3-[di-(trifluoromethyl)-hydroxy-methyl]-4,5-dihydro-1H-pyrazole]
